Our source for the IC50 values is patent publication US9187424B1, “Aryl dihydropyridinones and piperidinone MGAT2 inhibitors” (Bristol-Myers Squibb Company, priority 2011, dated 2015).

Molecules are shown by their SMILES.

In assay [1] the target is T1, Human MGAT-2 (Homo sapiens (Human), UniProt Q3SYC2). Put plainly: MGAT SPA Assay.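 Also: inhibition scaled between DMSO vehicle as full MGAT2 activity and membranes of uninfected Sf9 cells as blank, IC50 fitted by logistic curve.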 The settings on record: membranes from Sf9 cells expressing recombinant human MGAT2; 2-monooleoylglycerol and [3H]-oleoyl-CoA. In kind it is biochemical.
T1 sequence (Q3SYC2 whole entry): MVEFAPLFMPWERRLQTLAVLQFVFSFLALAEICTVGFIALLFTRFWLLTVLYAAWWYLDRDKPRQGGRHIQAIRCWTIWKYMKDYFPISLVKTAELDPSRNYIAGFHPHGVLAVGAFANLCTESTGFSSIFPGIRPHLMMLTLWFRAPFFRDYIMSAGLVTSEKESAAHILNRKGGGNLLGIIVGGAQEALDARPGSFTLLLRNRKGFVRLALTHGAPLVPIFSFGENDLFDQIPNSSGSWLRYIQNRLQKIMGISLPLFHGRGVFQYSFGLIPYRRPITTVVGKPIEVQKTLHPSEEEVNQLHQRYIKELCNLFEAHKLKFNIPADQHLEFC
Assay [2] has as its target T1, Human MGAT-2. Nature of the assay: MGAT LCMS Assay (human MGAT-2).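 Also: diolein product quantified by LC/MS with positive APCI, expressed as peak area ratio versus an internal standard, and this ratio used to derive IC50.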 In kind it is biochemical. The settings on record: human MGAT-2 membranes expressed in Sf9 cells; 2-oleoylglycerol and oleoyl-Coenzyme A; read-out: h-MGAT2 IC50 (nM) LCMS Assay.

The term IC50 denotes the concentration that gives 50% inhibition. On to `Cc1ccc(C2=C(C(=O)Nc3ccc(-c4nnn[nH]4)nc3)C(=O)NC(c3ccc(OCCCC(F)(F)F)cc3)(C(F)(F)F)C2)cc1` (stereo not drawn) [Example 111], for which the 50% inhibitory concentration (IC50) came out at 9 nM on Human MGAT-2 [1] and 7 nM at Human MGAT-2 [2].
Taken in the same sequence, the figures for `CCCCCNC(=O)C1=C(c2ccc(C)cc2)CC(c2ccc(OCCCC(F)(F)F)cc2)(C(F)(F)F)NC1=O` (stereo not drawn) [Example 55] were 846 nM and 20 nM.
On to `Cc1ccc(C2=C(C#N)C(=O)NC(C)(c3ccccc3)C2)cc1` (stereo not drawn) [Example 23], for which the IC50 on Human MGAT-2 [1] was determined as 1290 nM.
As to `Cc1ccc(C2=C(NC(=O)c3cc(F)ccc3Cl)C(=O)NC(c3ccc(OCCCC(F)(F)F)cc3)(C(F)(F)F)C2)cc1` (stereo not drawn) [Example 171], the values for the IC50 at Human MGAT-2 [1] and on Human MGAT-2 [2] were 724 nM and 57 nM, respectively.
The corresponding values for `COc1ccc(NC(=O)C2C(=O)N[C@@](c3ccc(OCCCC(F)(F)F)cc3)(C(F)(F)F)CC2c2ccc(C)cc2)cc1` (single isomer, unassigned) [Example 16-1, N-(4-Methoxyphenyl)-2-oxo-4-p-tolyl-6-(4-(4,4,4-trifluorobutoxyl)phenyl)-6-(trifluoromethyl)piperidine-3-carboxamide] are 25 nM and 7 nM.
Consider `Cc1ccc(C2=C(C#N)C(=O)NC(c3ccc(O)cc3)(C(F)(F)F)C2)cc1` (stereo not drawn) [Example 4, 6-(4-Hydroxyphenyl)-2-oxo-4-p-tolyl-6-(trifluoromethyl)-1,2,5,6-tetrahydro-pyridine-3-carbonitrile], for which, at Human MGAT-2 [1], the IC50 worked out at 5870 nM.
For the molecule `N#CC1=C(c2ccc(C(F)(F)F)cc2)CC(c2ccc(OCCCC(F)(F)F)cc2)(C(F)(F)F)NC1=O` (stereo not drawn) [Example 75], the results for the IC50 on Human MGAT-2 [1] and on Human MGAT-2 [2] were 873 nM and 209 nM, respectively.
The corresponding values for `Cc1ccc(C2=C(c3nnc(C(F)(F)F)o3)C(=O)NC(c3ccc(OCCCC(F)(F)F)cc3)(C(F)(F)F)C2)cc1` (stereo not drawn) [Example 10, 4-p-Tolyl-6-(4-(4,4,4-trifluorobutoxyl)phenyl)-6-(trifluoromethyl)-3-(5-(trifluoromethyl)-1,3,4-oxadiazol-2-yl)-5,6-dihydropyridin-2(1H)-one] are 2720 nM and 138 nM.
Taken in the same sequence, the figures for `Cc1ccc(C2=C(C(=O)Nc3ccc(F)cc3)C(=O)NC(c3ccc(Oc4ccccc4)cc3)(C(F)(F)F)C2)cc1` (stereo not drawn) [Example 48] were 226 nM and 7 nM.
As for `Cc1ccc(C2=CC(=O)NC(c3ccc(OCCCC(F)(F)F)cc3)(C(F)(F)F)C2)cc1` (stereo not drawn) [Example 70], at Human MGAT-2 [1], the IC50 was determined as 3400 nM.
Same read-out and setting: as for `Cc1ccc(C2=C(C#N)C(=O)NC(c3ccc(Br)cc3)(C(F)(F)F)C2)cc1` (stereo not drawn) [Example 3, 6-(4-Bromophenyl)-2-oxo-4-p-tolyl-6-(trifluoromethyl)-1,2,5,6-tetrahydropyridine-3-carbonitrile], the figure is 1800 nM.
On to `CCCCOc1ccc(C2(C(F)(F)F)CC(c3ccc(OC)cc3)=C(NC(=O)c3ccno3)C(=O)N2)cc1` (stereo not drawn) [Example 172], for which the half-maximal inhibitory concentration (IC50) amounted to 16 nM on Human MGAT-2 [1] and 3 nM at Human MGAT-2 [2].
The corresponding values for `Cc1ccc(C2=C(C(=O)Nc3ccc(O)cc3)C(=O)NC(c3ccc(OCCCC(F)(F)F)cc3)(C(F)(F)F)C2)cc1` (stereo not drawn) [Example 122] are 14 nM and 1 nM.
As to `Cc1ccc(C2=C(C#N)C(=O)NC(c3ccc(F)cc3)(C(F)(F)F)C2)cc1` (stereo not drawn) [Example 27], the IC50 on Human MGAT-2 [1] was determined as 2520 nM.
For `Cc1ccc(C2=C(c3nn[nH]n3)C(=O)NC(c3ccc(OCCCC(F)(F)C(F)(F)F)cc3)(C(F)(F)F)C2)cc1` (stereo not drawn) [Example 118], the half-maximal inhibitory concentration (IC50) at Human MGAT-2 [1] turned out to be 32 nM; at Human MGAT-2 [2] it was 4 nM.
For `Cc1ccc(C2=C(C3N=NN=N3)C(=O)NC(c3ccc(OCCCC(F)(F)F)cc3)(C(F)(F)F)C2)cc1` (stereo not drawn) [Example 113], the half-maximal inhibitory concentration (IC50) at Human MGAT-2 [1] amounted to […].
For `Cc1ccc(C2=C(C(=O)Nc3nn[nH]n3)C(=O)NC(c3cccc(C4=CCCCC4)c3)(C(F)(F)F)C2)cc1` (stereo not drawn) [Example 127], the 50% inhibitory concentration (IC50) amounted to 655 nM at Human MGAT-2 [1] and 10 nM at Human MGAT-2 [2].
Taken in the same sequence, the figures for `Cc1ccc(C2=C(C#N)C(=O)NC(c3ccc(OCCC4CCCC4)cc3)(C(F)(F)F)C2)cc1` (stereo not drawn) [Example 36] were 396 nM and 57 nM.
The corresponding values for `COc1ccc(NC(=O)C2=C(c3ccc(C)cc3)CC(c3ccc(OCC(F)(F)F)cc3)(C(F)(F)F)NC2=O)cc1` (stereo not drawn) [Example 88] are 28 nM and 5 nM.
Taken in the same sequence, the figures for `COc1ccc(C2=C(c3nn[nH]n3)C(=O)NC(c3ccc(OCCCC(F)(F)F)cc3)(C(F)(F)F)C2)c(F)c1` (stereo not drawn) [Example 95] were 95 nM and 43 nM.
For `N#CC1=C(c2cccc(C#N)c2)CC(c2ccc(OCCCC(F)(F)F)cc2)(C(F)(F)F)NC1=O` (stereo not drawn) [Example 69], the IC50 on Human MGAT-2 [1] came to 9230 nM; on Human MGAT-2 [2], 983 nM.
Regarding `CCOc1ccc(-c2ccc(C3(C(F)(F)F)CC(c4ccc(C)cc4)=C(C#N)C(=O)N3)cc2)cn1` (stereo not drawn) [Example 7, 6-(4-(6-Ethoxypyridin-3-yl)phenyl)-2-oxo-4-p-tolyl-6-(trifluoromethyl)-1,2,5,6-tetrahydropyridine-3-carbonitrile], the half-inhibitory concentration (IC50) at Human MGAT-2 [1] stood at 818 nM.
On the same count and under the same terms, to `Cc1ccc(C2=C(C#N)C(=O)NC(c3ccc(F)c(F)c3)(C(F)(F)F)C2)cc1` (stereo not drawn) [Example 26] belongs 6430 nM; to `Cc1ccc(C2=C(C#N)C(=O)NC(c3cccc(Br)c3)(C(F)(F)F)C2)cc1` (stereo not drawn) [Example 32], 9960 nM.
In the case of `Cc1ccc(C2=C(C(=O)NCc3ccccc3)C(=O)NC(c3ccc(OCCCC(F)(F)F)cc3)(C(F)(F)F)C2)cc1` (stereo not drawn) [Example 56], the concentration for half-maximal inhibition (IC50) at Human MGAT-2 [1] is 6550 nM.
The same measure, in the same setting: as for `Cc1ccc(C2=C(C(=O)Nc3cccc(Cl)c3)C(=O)NC(c3ccc(OCCCC(F)(F)F)cc3)(C(F)(F)F)C2)cc1` (stereo not drawn) [Example 61], the figure is 709 nM.
For the molecule `Cc1ccc(C2=C(C#N)C(=O)NC(c3ccc(Cl)cc3)(C(F)(F)F)C2)cc1` (stereo not drawn) [Example 24], the 50% inhibitory concentration (IC50) on Human MGAT-2 [1] was 1730 nM.
With `CC(C)(C)c1ccc(C2=C(C#N)C(=O)NC(C)(c3ccc(C(C)(C)C)cc3)C2)cc1` (stereo not drawn) [Example 20], the IC50 at Human MGAT-2 [1] stood at 3460 nM.
Same read-out and setting: to `CCOc1ccc(C2=C(C#N)C(=O)NC(C)(c3ccc(OCC)cc3)C2)cc1` (stereo not drawn) [Example 19] belongs 2900 nM.
On the same count and under the same terms, as for `CC1(c2ccc(N3CCOCC3)cc2)CC(c2ccc(N3CCOCC3)cc2)=C(C#N)C(=O)N1` (stereo not drawn) [Example 17], the figure is 1930 nM; as for `Cc1ccc(C2=C(c3nnn[nH]3)C(=O)NC(C)(c3ccc(C)cc3)C2)cc1` (stereo not drawn) [Example 21], 913 nM.
The same measure, in the same setting: as for `COc1ccc(C2(C(F)(F)F)CC(c3ccc(C)cc3)=C(c3nnn[nH]3)C(=O)N2)cc1` (stereo not drawn) [Example 38], the figure is 2140 nM.
Turning to `Cc1ccc(C2=C(C#N)C(=O)NC(c3cccc(F)c3)(C(F)(F)F)C2)cc1` (stereo not drawn) [Example 25], the IC50 on Human MGAT-2 [1] amounted to 4570 nM.
The same measure, in the same setting: as for `Cc1ccc(C2=C(C#N)C(=O)NC(c3ccc(OCc4ccccc4)cc3)(C(F)(F)F)C2)cc1` (stereo not drawn) [Example 47], the figure is 756 nM; as for `Cc1ccc(C2=C(C#N)C(=O)NC(c3ccc(Oc4ncccn4)cc3)(C(F)(F)F)C2)cc1` (stereo not drawn) [Example 46], 871 nM.
Same read-out and setting: as for `Cc1ccc(C2=C(C#N)C(=O)NC(C)(c3ccc(C)c(C)c3)C2)cc1C` (stereo not drawn) [Example 18], the figure is 5760 nM.
As for `Cc1ccc(C2=C(C(=O)NC3CCCC3)C(=O)NC(c3ccc(OCCCC(F)(F)F)cc3)(C(F)(F)F)C2(F)F)cc1` (stereo not drawn) [Example 141], the IC50 at Human MGAT-2 [2] amounted to 459 nM.
The same measure, in the same setting: to `COc1ccc(C2=C(C#N)C(=O)NC(c3ccc(OCCCC(F)(F)F)cc3)(C(F)(F)F)C2)cc1OC` (stereo not drawn) [Example 216] belongs 440 nM.
For the molecule `Cc1ccc(C2=C(C#N)C(=O)NC(c3ccc(Oc4ccccc4)nc3)(C(F)(F)F)C2)cc1` (stereo not drawn) [Example 44], the concentration for half-maximal inhibition (IC50) on Human MGAT-2 [1] was 1460 nM.
For `Cc1ccc(C2=C(NC(=O)CS(C)(=O)=O)C(=O)NC(c3ccc(OCCCC(F)(F)F)cc3)(C(F)(F)F)C2)cc1` (stereo not drawn) [Example 239], at Human MGAT-2 [2], the IC50 was found to be 15 nM.
On the same count and under the same terms, to `O=C1NC(c2ccc(OCCCC(F)(F)F)cc2)(C(F)(F)F)CC(c2ccc(OC(F)(F)F)cc2)=C1c1nn[nH]n1` (stereo not drawn) [Example 243] belongs 14 nM; to `CCCOc1ccc(C2(C(F)(F)F)CC(c3ccc(C)cc3)=C(NC(=O)CS(C)(=O)=O)C(=O)N2)cc1` (stereo not drawn) [Example 302], 105 nM; to `Cc1ccc(C2=C(NC(=O)c3ccc(OC(F)(F)F)cc3)C(=O)NC(c3cnn(CCCCCC(F)(F)F)c3)(C(F)(F)F)C2)cc1` (stereo not drawn) [Example 200], 37 nM.
Turning to `Cc1ccc(C2=C(C#N)C(=O)NC(c3ccc(N(C)C)cc3)(C(F)(F)F)C2)cc1` (stereo not drawn) [Example 31], the IC50 on Human MGAT-2 [1] was 1510 nM.
Consider `COc1ccc(C2=C(c3nn[nH]n3)C(=O)NC(C#CCCC(C)C)(C(F)(F)F)C2)cc1` (stereo not drawn) [Example 295], for which the concentration for half-maximal inhibition (IC50) at Human MGAT-2 [2] turned out to be 183 nM.
Still for that read-out and setting: as for `COc1ccc(Cn2cc(C3(C(F)(F)F)CC(c4ccc(C)cc4)=C(c4nn[nH]n4)C(=O)N3)cn2)cc1` (stereo not drawn) [Example 182], the figure is 2050 nM; as for `COc1ccc(C2(C(F)(F)F)NC(=O)C(C#N)=C(c3ccc(C)cc3)C2(F)F)cc1` (stereo not drawn) [Example 138], 5800 nM; as for `O=C1NC(c2ccc(OCCCCCC(F)(F)F)c(F)c2)(C(F)(F)F)CC(c2ccc(CC(F)(F)F)cc2)=C1c1nn[nH]n1` (stereo not drawn) [Example 306], 3 nM.
Still for that read-out and setting: as for `CCCCCn1cc(C2(C(F)(F)F)CC(c3ccc(C)cc3)=C(C#N)C(=O)N2)cn1` (stereo not drawn) [Example 230], the figure is 1530 nM; as for `COCc1ccc(C2=C(C#N)C(=O)NC(c3ccc(OCCCC(F)(F)F)cc3)(C(F)(F)F)C2)cc1` (stereo not drawn) [Example 260], 56 nM; as for `CCOc1ccc(C2=C(C#N)C(=O)NC(c3ccc(OCCCC(F)(F)F)cc3)(C(F)(F)F)C2)cc1Cl` (stereo not drawn) [Example 263], 103 nM.
On the same count and under the same terms, to `Cc1ccc(C2=C(c3nn[nH]n3)C(=O)NC(c3ccc(OCCCC(F)(F)F)cc3)(C(F)(F)F)C2)c(F)c1` (stereo not drawn) [Example 286] belongs 4 nM.
`COc1ccc(NC(=O)C2=C(c3ccc(C)cc3F)CC(c3ccc(OCCCC(F)(F)F)cc3)(C(F)(F)F)NC2=O)cc1` (stereo not drawn) [Example 296]: the IC50 on Human MGAT-2 [2] turned out to be 2 nM.
Same read-out and setting: to `Cc1ccc(NC(=O)C2=C(c3ccc(C)cc3)CC(c3ccc(OCCC(F)(F)F)cc3)(C(F)(F)F)NC2=O)cc1` (stereo not drawn) [Example 129] belongs 222 nM.
